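96-well plates; 48 h exposure; 5 concentrations. Endpoints by linear interpolation between flanking doses. Not reached: highest tested concentration assigned. At the GI50, growth is halved.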 The source made the active and inactive calls. No stated cut-off is given here; in the data, active = GI50 up to about 1.1 µM and inactive = higher.
Columns and labels:
Assay in all cases: NCI-60 cell line screen, 48 h
[1] = system: KM12
[2] = system: U-251
[3] = system: NCI-H460
[4] = system: M14
[5] = system: MOLT-4
[6] = system: SK-MEL-5
[7] = system: SK-OV-3
[8] = system: RPMI-8226
[9] = system: SF-268
[10] = system: SK-MEL-2
[11] = system: HCT-15
[12] = system: A549
[13] = system: SF-539
[14] = system: 786-0
[15] = system: HOP-62
[16] = system: K562
[17] = system: RXF 393

| Compound | GI50 [1] | GI50 [2] | GI50 [3] | GI50 [4] | GI50 [5] | GI50 [6] | GI50 [7] | GI50 [8] | GI50 [9] | GI50 [10] | GI50 [11] [µM] | GI50 [12] | GI50 [13] | GI50 [14] | GI50 [15] | GI50 [16] | GI50 [17] |
| --- | --- | --- | --- | --- | --- | --- | --- | --- | --- | --- | --- | --- | --- | --- | --- | --- | --- |
| COc1ccc(C(N)=O)cc1/N=N/N(C)C | > 100 µM (inactive) | > 100 µM (inactive) | > 100 µM (inactive) | > 100 µM (inactive) | > 100 µM (inactive) | > 100 µM (inactive) | > 100 µM (inactive) | > 100 µM (inactive) | > 100 µM (inactive) | > 100 µM (inactive) | > 100 | > 100 µM (inactive) | > 100 µM (inactive) | > 100 µM (inactive) | > 100 µM (inactive) | > 100 µM (inactive) |  |
| O=C(CCn1[nH]c(=O)c(Cl)c(Cl)c1=O)NOCCCc1ccccc1 | > 100 µM (inactive) |  | > 100 µM (inactive) | > 100 µM (inactive) | > 100 µM (inactive) | > 100 µM (inactive) |  | > 100 µM (inactive) | > 100 µM (inactive) | > 100 µM (inactive) | > 100 | > 100 µM (inactive) | > 100 µM (inactive) | > 100 µM (inactive) | > 100 µM (inactive) | > 100 µM (inactive) |  |
| O=C1C=CC(CC(=O)c2ccc3ccccc3c2)O1 (stereo not drawn) | 17.5 µM (inactive) | 18.2 µM (inactive) | 24.2 µM (inactive) | 32.2 µM (inactive) | 21.7 µM (inactive) | 59.3 µM (inactive) | 68.1 µM (inactive) |  | 17.6 µM (inactive) | 23.8 µM (inactive) | 20.5 | 61.9 µM (inactive) | 18.9 µM (inactive) | 21.6 µM (inactive) | 21.5 µM (inactive) | 32.9 µM (inactive) | 20.5 µM (inactive) |
| CCC(=O)N1C(=S)SC[C@H]1C(=O)OC | > 100 µM (inactive) | > 100 µM (inactive) |  | > 100 µM (inactive) | > 100 µM (inactive) | > 100 µM (inactive) | > 100 µM (inactive) |  | > 100 µM (inactive) |  |  | > 100 µM (inactive) | > 100 µM (inactive) | > 100 µM (inactive) | > 100 µM (inactive) | > 100 µM (inactive) | > 100 µM (inactive) |
| CN(/N=C/c1cccc2cccnc12)c1c([N+](=O)[O-])cc([N+](=O)[O-])cc1[N+](=O)[O-] | 25.2 µM (inactive) | > 100 µM (inactive) | > 100 µM (inactive) | > 100 µM (inactive) | 11.4 µM (inactive) | 64.9 µM (inactive) | > 100 µM (inactive) | > 100 µM (inactive) | > 100 µM (inactive) | > 100 µM (inactive) | 13.2 | 46.8 µM (inactive) | > 100 µM (inactive) | > 100 µM (inactive) | > 100 µM (inactive) | 3.56 µM (inactive) | > 100 µM (inactive) |
| CCOC(=O)C(=O)Nc1ccc(C)c(C)c1 | > 53.8 µM (inactive) | > 100 µM (inactive) | > 60.4 µM (inactive) | > 100 µM (inactive) | > 100 µM (inactive) | > 100 µM (inactive) | > 100 µM (inactive) | > 100 µM (inactive) | > 100 µM (inactive) | > 100 µM (inactive) | > 41.2 | > 100 µM (inactive) | > 100 µM (inactive) | > 100 µM (inactive) | > 100 µM (inactive) | > 73.1 µM (inactive) | > 100 µM (inactive) |
| NCCCCCCNCc1cccc2ccccc12 | 99.8 µM (inactive) | > 100 µM (inactive) | > 100 µM (inactive) | 18.4 µM (inactive) | 40.8 µM (inactive) | 90.8 µM (inactive) | > 100 µM (inactive) | > 100 µM (inactive) |  | 41.3 µM (inactive) | 74.6 | > 100 µM (inactive) | 40.6 µM (inactive) | > 100 µM (inactive) | > 100 µM (inactive) | 19.8 µM (inactive) | 57 µM (inactive) |
| CCCCCCCCCCCCCCCC(=O)OCCOCCOCCOCc1ccccc1 | > 100 µM (inactive) | 41.6 µM (inactive) | > 100 µM (inactive) |  |  | > 100 µM (inactive) |  |  | 91 µM (inactive) | > 100 µM (inactive) |  | > 100 µM (inactive) | > 100 µM (inactive) | > 100 µM (inactive) | > 100 µM (inactive) |  | > 100 µM (inactive) |
| O=C(/C=C/c1ccccc1O)c1cccc2ccccc12 | 40.3 µM (inactive) | 42.3 µM (inactive) | > 84.1 µM (inactive) | > 100 µM (inactive) | 21.1 µM (inactive) | > 100 µM (inactive) | > 100 µM (inactive) | 20.3 µM (inactive) | 48.8 µM (inactive) | > 100 µM (inactive) | 23.7 | > 80.2 µM (inactive) | 76.4 µM (inactive) | 58.7 µM (inactive) | > 81.7 µM (inactive) | 32 µM (inactive) | 43.2 µM (inactive) |
| CC1=N/C(=C\c2ccc(N)cc2)C(=O)N1Nc1nnc(NN2C(=O)/C(=C/c3ccc(N)cc3)N=C2C)c2ccccc12 | 37.6 µM (inactive) | 45.4 µM (inactive) | > 100 µM (inactive) | > 100 µM (inactive) | 35.2 µM (inactive) | 45.2 µM (inactive) |  | 26.4 µM (inactive) | 55 µM (inactive) |  | 82.2 | > 100 µM (inactive) | 24.8 µM (inactive) | 32.5 µM (inactive) | 23.1 µM (inactive) | 27.4 µM (inactive) | 22.5 µM (inactive) |
| N=C(N)SCc1cn2ccccc2n1 | > 100 µM (inactive) | > 100 µM (inactive) | > 100 µM (inactive) | > 100 µM (inactive) | > 100 µM (inactive) | > 100 µM (inactive) |  | > 100 µM (inactive) | > 100 µM (inactive) | > 100 µM (inactive) | > 100 | > 100 µM (inactive) | > 100 µM (inactive) | > 100 µM (inactive) | > 100 µM (inactive) | > 100 µM (inactive) |  |
| COc1ccc2cc1Oc1ccc(cc1)CC1c3cc(c(OC)cc3CCN1C)Oc1c3c(cc4c1C(C2)N(C)CC4)OCO3 (stereo not drawn) | 12.9 µM (inactive) | 5.14 µM (inactive) | 14.2 µM (inactive) | 1.87 µM (inactive) | 5.52 µM (inactive) | 12.3 µM (inactive) |  |  | 8.36 µM (inactive) | 5.2 µM (inactive) | 4.42 | 16 µM (inactive) | 2.34 µM (inactive) | 11.5 µM (inactive) | 15.5 µM (inactive) | 1.85 µM (inactive) | 1.83 µM (inactive) |
| O=C1c2cccc3c(Cl)ccc(c23)C(=O)N1CCCN1CCN(CCCN2C(=O)c3cccc4c(Cl)ccc(c34)C2=O)CC1 | > 100 µM (inactive) | 55.7 µM (inactive) | > 100 µM (inactive) | > 100 µM (inactive) | 57.3 µM (inactive) | > 100 µM (inactive) | > 100 µM (inactive) | > 100 µM (inactive) |  | > 100 µM (inactive) | > 100 | > 100 µM (inactive) | > 100 µM (inactive) | 64.4 µM (inactive) | > 100 µM (inactive) | 86.1 µM (inactive) |  |
| O=C1OC2(c3ccccc3Oc3ccccc32)c2ccccc21 | > 100 µM (inactive) | > 100 µM (inactive) | > 100 µM (inactive) | > 100 µM (inactive) | > 100 µM (inactive) | > 100 µM (inactive) | > 100 µM (inactive) | > 100 µM (inactive) | > 100 µM (inactive) | > 100 µM (inactive) | > 100 | > 100 µM (inactive) | > 100 µM (inactive) | > 100 µM (inactive) | > 100 µM (inactive) | 50.8 µM (inactive) |  |
| OC(c1cc2ccccc2[nH]1)C(O)(c1cc2ccccc2[nH]1)c1cc2ccccc2[nH]1 (stereo not drawn) | 8 µM (inactive) | 25.8 µM (inactive) | 14.4 µM (inactive) |  | 8.07 µM (inactive) | 11.6 µM (inactive) | 10.4 µM (inactive) | 7.11 µM (inactive) | 15.6 µM (inactive) | 17.9 µM (inactive) | 10 | 12.6 µM (inactive) | 41.4 µM (inactive) | 6.89 µM (inactive) | 15.4 µM (inactive) | 10.9 µM (inactive) | 7.18 µM (inactive) |
| CC1C2CC=CC(=O)[C@@]2(C)CCC12OCCO2 (stereo partly drawn) | > 100 µM (inactive) | > 100 µM (inactive) | > 100 µM (inactive) | 97.1 µM (inactive) | > 100 µM (inactive) | 24.6 µM (inactive) | > 100 µM (inactive) |  | > 100 µM (inactive) | > 100 µM (inactive) |  | > 100 µM (inactive) | > 100 µM (inactive) | > 100 µM (inactive) | > 100 µM (inactive) | > 100 µM (inactive) | > 100 µM (inactive) |
| COc1c(C)c(O)c2c(=O)cc(-c3ccccc3)oc2c1C | > 100 µM (inactive) | > 100 µM (inactive) | > 100 µM (inactive) | > 100 µM (inactive) | > 100 µM (inactive) | > 100 µM (inactive) | > 100 µM (inactive) |  | > 100 µM (inactive) | > 100 µM (inactive) | > 100 | > 100 µM (inactive) | > 100 µM (inactive) | > 100 µM (inactive) | > 100 µM (inactive) | > 100 µM (inactive) |  |
| C=C1C(=O)O[C@@H]2[C@H]1CCC(C)=C1C=CC(=O)[C@]12C | 12.4 µM (inactive) | 22.4 µM (inactive) | 19.4 µM (inactive) |  | 10.9 µM (inactive) | 13.9 µM (inactive) | 27.2 µM (inactive) | 6.67 µM (inactive) | 23.9 µM (inactive) | 20.7 µM (inactive) |  | 23.6 µM (inactive) | 15.5 µM (inactive) | > 10 µM (inactive) |  | 4.49 µM (inactive) | 14.4 µM (inactive) |

From ChEMBL document CHEMBL1201862, “PubChem BioAssay data set” (2004)
